# Tested on: CD patients
# Test: prospective clinical intervention study of riboflavin in CD patients
# Format: in vivo, human
# Conditions: 100 mg riboflavin daily for 3 weeks
# Method: In a prospective clinical intervention study, 70 CD patients were included and divided into two groups with (active) and without (quiescent) evidence of mucosal inflammation (defined by fecal calprotectin (FC) cut-off value: 200 μg/g). Patients received 100 mg riboflavin daily for 3 weeks. Clinical disease activity (Harvey-Bradshaw Index: HBI), inflammatory biomarkers (including interleukin 2) as well as fecal microbial composition (including pathogenic Enterobacteriaceae including E. coli) were analyzed before and after riboflavin intervention.
compound,measurement,setting,value
Cc1cc2nc3c(=O)[nH]c(=O)nc-3n(C[C@H](O)[C@H](O)[C@H](O)CO)c2cc1C [riboflavin],fecal calprotectin,patients with TNF-alpha inhibitor treatment (FIG. 4),further reduction
same,proinflammatory cytokine IL2,patients with TNF-alpha inhibitor treatment (FIG. 5),further reduction
same,Enterobacteriaceae including E. coli (fecal microbial composition),patients with TNF-alpha inhibitor treatment (FIG. 6),further reduction
same,clinical disease activity (Harvey-Bradshaw Index: HBI),"patients with TNF-alpha inhibitor treatment, both active and quiescent disease, before vs after (FIG. 1-3)",further reduced
same,clinical disease activity (Harvey-Bradshaw Index: HBI),patients with mesalazine treatment (FIG. 1-3),not the case (not as pronounced as)

# — patent US20220135667A1, “THERAPEUTIC COMBINATIONS AND COMPOSITIONS FOR THE TREATMENT OF INFLAMMATORY BOWEL DISEASE (II)” (RIJSUNIVERSITEIT GRONINGEN, priority 2019, published 2022)
